Data on one compound can be found in patent US20220281860A1, “COMPOUNDS AND METHODS OF TREATING RNA-MEDIATED DISEASES” (Arrakis Therapeutics, Inc., priority 2016, published 2022).

The subject of this experiment is RNA3WJ_0.0.0_5IB_3FAM. Put plainly: Ligand observed NMR binding assay (WaterLOGSY, STD). Conditions: 10 μM RNA3WJ_0.0.0_5IB_3FAM +/− 200 compound. On the procedure:
Purpose: Test direct binding of compounds for RNA three way junction (3WJ). This ligand observed NMR assay is used to test direct binding of compounds to an RNA target, for example a 38 nt synthetic RNA 3WJ and others as described below. Ligand observed assay was used for hit validation studies of single compounds. Established experiments were eventually used to perform group epitope mapping, described below.
Sample buffer: 10 mM Cacodylate, pH 7.1; 0.68 g [MW: 137.99 g/mol]; fill up to 500 ml with Millipore H2O.
Compound Stocks: Tool compounds provided as dry powder were prepared as 50 mM stock solution in 100% d6-DMSO. […]
Proton 900 pulse is determined and water resonance frequency is adjusted to ensure maximal water suppression. The determined values are transferred to the NMR experiments that will be recorded for the respective sample. […]
Python scripts are used to process all recorded spectra in the assay setup, screening and deconvolution process.
Spectra were analyzed for direct binding signals of the compounds. […]
ARK0000013 was also tested in the NMR binding assay. Test Sample: 10 μM RNA3WJ_0.0.0_5IB_3FAM+/−200 Ark000013. ^1H 1D Watergate & WaterLOGSY spectra recorded of Ark000013 were used as a reference (Note: aromatic signals observed between 7.4-7.9 ppm and due to symmetry of the center triptycene scaffold all 9 protons are magnetically equivalent).

Consider `CN(CCCN)CCCNC(=O)c1ccc2c(c1)C1c3cc(C(=O)NCCCN(C)CCCN)ccc3C2c2ccc(C(=O)NCCCN(C)CCCN)cc21` [Ark0000013, N^2,N^7,N^15-tris(3-((3-aminopropyl)(methyl)amino)propyl)-9,10-dihydro-9,10-[1,2]benzenoanthracene-2,7,15-tricarboxamide], for which the STD signals entry is on record as “small signals that were sufficient to qualitatively confirm binding”.
